As a reminder, the residual activity is the signal under treatment as a percentage of the control signal.

This is an account of results in ChEMBL document CHEMBL3039007, “Structure-based identification of OATP1B1/3 inhibitors” (Mol Pharmacol, 2013).

Data set [1] deals with T1, Solute carrier organic anion transporter family member 1B1 (Homo sapiens, UniProt Q9Y6L6).
T1 sequence (Q9Y6L6 whole entry): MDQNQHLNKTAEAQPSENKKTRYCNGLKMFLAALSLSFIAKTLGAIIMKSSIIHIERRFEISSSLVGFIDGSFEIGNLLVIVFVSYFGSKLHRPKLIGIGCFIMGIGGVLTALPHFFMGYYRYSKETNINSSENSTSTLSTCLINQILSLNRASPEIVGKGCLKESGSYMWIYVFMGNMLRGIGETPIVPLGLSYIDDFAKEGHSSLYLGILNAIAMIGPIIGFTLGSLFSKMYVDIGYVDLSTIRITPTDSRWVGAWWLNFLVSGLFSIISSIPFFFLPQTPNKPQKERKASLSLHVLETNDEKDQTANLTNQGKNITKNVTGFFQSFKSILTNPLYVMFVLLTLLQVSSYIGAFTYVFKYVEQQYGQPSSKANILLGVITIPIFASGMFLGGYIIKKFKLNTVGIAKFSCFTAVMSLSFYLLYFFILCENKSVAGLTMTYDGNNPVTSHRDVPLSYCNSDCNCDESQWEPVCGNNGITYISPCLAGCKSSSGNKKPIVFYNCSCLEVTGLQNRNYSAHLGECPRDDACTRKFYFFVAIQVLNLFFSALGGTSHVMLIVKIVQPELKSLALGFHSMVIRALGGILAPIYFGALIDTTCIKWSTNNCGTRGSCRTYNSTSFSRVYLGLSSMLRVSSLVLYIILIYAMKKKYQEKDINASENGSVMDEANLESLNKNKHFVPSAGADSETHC
Conditions: chinese hamster, cho, 10 µM.

Data set [2] concerns the target T2, Solute carrier organic anion transporter family member 1B3 (Homo sapiens, UniProt Q9NPD5).
T2 sequence (Q9NPD5 whole entry): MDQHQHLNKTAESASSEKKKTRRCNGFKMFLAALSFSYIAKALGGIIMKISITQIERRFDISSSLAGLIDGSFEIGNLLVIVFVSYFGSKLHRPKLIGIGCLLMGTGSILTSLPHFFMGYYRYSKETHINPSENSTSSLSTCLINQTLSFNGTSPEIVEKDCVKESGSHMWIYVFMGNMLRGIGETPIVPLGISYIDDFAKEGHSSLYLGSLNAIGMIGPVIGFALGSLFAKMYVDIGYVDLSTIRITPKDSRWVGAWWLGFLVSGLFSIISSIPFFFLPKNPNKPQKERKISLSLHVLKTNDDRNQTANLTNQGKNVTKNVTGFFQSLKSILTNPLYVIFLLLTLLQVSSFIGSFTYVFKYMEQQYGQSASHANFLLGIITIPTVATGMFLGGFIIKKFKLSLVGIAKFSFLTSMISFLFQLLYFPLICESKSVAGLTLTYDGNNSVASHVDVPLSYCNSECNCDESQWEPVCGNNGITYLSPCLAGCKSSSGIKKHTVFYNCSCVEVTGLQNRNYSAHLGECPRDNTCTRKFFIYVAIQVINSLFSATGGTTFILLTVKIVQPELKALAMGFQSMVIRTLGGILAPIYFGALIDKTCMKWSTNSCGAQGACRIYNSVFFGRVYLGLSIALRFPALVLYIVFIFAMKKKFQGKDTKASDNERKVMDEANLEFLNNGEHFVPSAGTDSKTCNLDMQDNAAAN
The conditions noted are these: chinese hamster, cho, 10 µM.

As for `COc1ccc(-c2cc(=O)c3c(OC(C)=O)cc(OC(C)=O)cc3o2)cc1` [ACACETIN DIACETATE], the residual activity is 133.5% in data set [1] and 127.6% in data set [2].
On the same counts, the results for `CCCC(=O)Nc1ccc(OCC(O)CNC(C)C)c(C(C)=O)c1.Cl` (stereo not drawn) [ACEBUTOLOL HYDROCHLORIDE] are 74.42% and 93.16%.
For `CCN(CC)CCNC(=O)c1ccc(NC(C)=O)cc1.Cl` [ACECAINIDE HYDROCHLORIDE] the same measures were 70.32% and 90.6%.
Consider `COc1ccc2c(c1)c(CC(=O)OCC(=O)O)c(C)n2C(=O)c1ccc(Cl)cc1` [ACEMETACIN], for which the figures for the residual activity in data set [1] and in data set [2] were 57.75% and 84.99%, respectively.
With `COP(=O)(NC(C)=O)SC` (stereo not drawn) [ACEPHATE], the residual activity in data set [1] is listed as 75.83%; in data set [2], 83.6%.
As to `CC(=O)Nc1ccc(O)cc1` [ACETAMINOPHEN], the figures for the residual activity in data set [1] and in data set [2] were 99.98% and 96.68%, respectively.
On the same counts, the results for `CC(=O)Nc1ccc(OC(=O)c2ccccc2O)cc1` [ACETAMINOSALOL] are 103.1% and 102.7%.
With `CC(=O)Nc1ccccc1` [ACETANILIDE], the residual activity in data set [1] was found to be 96.78%; in data set [2], 100.2%.
As to `CC(=O)Nc1cc([As](=O)(O)O)ccc1O` [ACETARSONE], the residual activity is on record as 58.73% in data set [1] and 85.71% in data set [2].
Take `CC(=O)Nc1nnc(S(N)(=O)=O)s1` [ACETAZOLAMIDE]: the residual activity is 90.74% in data set [1] and 84.51% in data set [2].
For `CCOCN(C(=O)CCl)c1c(C)cccc1CC` [ACETOCHLOR] the same measures were 74.59% and 84.4%.
On the same counts, the results for `CC(=O)NO` [ACETOHYDROXAMIC ACID] are 91.26% and 100.9%.
For `COc1cc(C(C)=O)cc(OC)c1O` [ACETOSYRINGONE] the same measures were 104.7% and 115.4%.
Regarding `CC(=O)Nc1c(I)cc(I)c(C(=O)O)c1I` [ACETRIZOIC ACID], the results for the residual activity in data set [1] and in data set [2] were 133.1% and 98.63%, respectively.
For the compound `CC(=O)O[C@H]1CC[C@]2(C)[C@H]3CC=C4[C@@H]5CC(C)(C)CC[C@]5(C(=O)O)CC[C@@]4(C)[C@]3(C)CC[C@H]2C1(C)C` [ACETYL OLEANOLIC ACID], the results for the residual activity in data set [1] and in data set [2] were 37.04% and 24.66%, respectively.
For `CCOC(=O)C(Cc1ccc(O)cc1)NC(C)=O` (stereo not drawn) [ACETYL TYROSINE ETHYL ESTER] the same measures were 118.5% and 103.5%.
On the same counts, the results for `CC(=O)N[C@@H](CS)C(=O)O` [ACETYLCYSTEINE] are 82.21% and 89.21%.
For `CC(=O)NCCc1c[nH]c2ccc(O)cc12` [ACETYLSEROTONIN] the same measures were 100.7% and 91.29%.
On to `CC(=O)N[C@@H](Cc1c[nH]c2ccccc12)C(N)=O` [ACETYLTRYPTOPHANAMIDE], for which the figures for the residual activity in data set [1] and in data set [2] were 85.16% and 60.38%, respectively.
As for `CC(=O)N[C@@H](Cc1c[nH]c2ccccc12)C(=O)O` [ACETYLTRYPTOPHAN], the residual activity in data set [1] came out at 63.36%; in data set [2], 85.99%.
For `CC(=O)NCCCCCC(=O)O` [ACEXAMIC ACID] the same measures were 144.2% and 111.3%.
`N[C@H](C(=O)O)[C@@H]1CC(Cl)=NO1` [ACIVICIN]: the residual activity is recorded as 137.7% in data set [1] and 113.3% in data set [2].
On the same counts, the results for `CC[C@@]1(O)C[C@H](O[C@H]2C[C@H](N(C)C)[C@H](O[C@H]3C[C@H](O)[C@H](O[C@H]4CCC(=O)[C@H](C)O4)[C@H](C)O3)[C@H](C)O2)c2c(cc3c(c2O)C(=O)c2c(O)cccc2C3=O)[C@H]1C(=O)OC` [ACLARUBICIN] are 95.52% and 107.1%.
On the same counts, the results for `O=C(O)/C=C(\CC(=O)O)C(=O)O` [ACONITIC ACID] are 102.5% and 88.62%.
Consider `CCN1C[C@]2(COC)[C@H](O)C[C@H](OC)[C@@]34[C@@H]5C[C@@]6(O)[C@H](OC(=O)c7ccccc7)[C@@H]5[C@@](OC(C)=O)([C@@H]([C@H](OC)[C@H]23)[C@@H]14)[C@@H](O)[C@@H]6OC` [ACONITINE], for which the residual activity was 65.77% in data set [1] and 85.31% in data set [2].
For the compound `CCCCCCc1ccc(O)cc1O.Nc1c2ccccc2nc2ccccc12` [ACRISORCIN], the figures for the residual activity in data set [1] and in data set [2] were 70.31% and 120.2%, respectively.
Take `Nc1nc2c(ncn2COCCO)c(=O)[nH]1` [ACYCLOVIR]: the results for the residual activity in data set [1] and in data set [2] were 103.4% and 105.5%, respectively.
For `Nc1ncnc2nc[nH]c12` [ADENINE] the same measures were 90.14% and 81.98%.
For `Nc1ncnc2c1ncn2[C@@H]1O[C@H](COP(=O)(O)O)[C@@H](O)[C@H]1O` [ADENOSINE PHOSPHATE] the same measures were 91.52% and 90.72%.
On the same counts, the results for `CCN(CC)CCOC(=O)C(c1ccccc1)c1ccccc1.Cl` [ADIPHENINE HYDROCHLORIDE] are 59.48% and 95.82%.
In the case of `CC(=O)NC(Cc1ccccc1)C(=O)O` (stereo not drawn) [AFALANINE], the residual activity was found to be 114.2% in data set [1] and 112.5% in data set [2].
On the same counts, the results for `CC1=CCCC2C1(C)CCC(C)C2(C)CC/C(C)=C/Cn1c[n+](C)c2c(N)ncnc21` (stereo not drawn) [AGELASINE (stereochemistry of diterpene unknown)] are 56.98% and 93.91%.
`N=C(N)NCCCCN.O=S(=O)(O)O` [AGMATINE SULFATE]: the residual activity in data set [1] was 111.9%; in data set [2], 110%.
With `CC[C@H]1[C@@H]2C[C@H]3[C@@H]4N(C)c5ccccc5[C@]45C[C@@H]([C@@H]2[C@H]5O)N3[C@@H]1O` [AJMALINE], the residual activity in data set [1] amounted to 34.58%; in data set [2] it was 91.52%.
As to `CC[C@@]1(O)C[C@H](O[C@H]2C[C@H](N(C)C)[C@H](O)[C@H](C)O2)c2c(cc3c(c2O)C(=O)c2c(O)cccc2C3=O)[C@H]1C(=O)OC.Cl` [AKLAVINE HYDROCHLORIDE], the residual activity came to 70.22% in data set [1] and 83.91% in data set [2].
On the same counts, the results for `NC(=O)c1ccc([N+](=O)[O-])cc1Cl` [AKLOMIDE] are 115.5% and 100.2%.
For `CCc1cccc(CC)c1N(COC)C(=O)CCl` [ALACHLOR] the same measures were 103.5% and 105%.
For `CC(N)C(=O)OC(C)(C)Cc1ccc(Cl)cc1` (stereo not drawn) [ALAPROCLATE] the same measures were 84.52% and 98.54%.
Consider `CCCSc1ccc2nc(NC(=O)OC)[nH]c2c1` [ALBENDAZOLE], for which the residual activity came to 102.7% in data set [1] and 95.9% in data set [2].
For `NC(=O)NCC(N)C(=O)O` (stereo not drawn) [ALBIZZIINE] the same measures were 118.1% and 110.8%.
Turning to `CNC(=O)O/N=C/C(C)(C)SC` [ALDICARB], the residual activity in data set [1] came out at 120.5%; in data set [2], 80.05%.
On the same counts, the results for `ClC1=C(Cl)C2(Cl)C3C4C=CC(C4)C3C1(Cl)C2(Cl)Cl` (stereo not drawn) [ALDRIN] are 121.9% and 124.9%.
On the same counts, the results for `NC(=O)NC1NC(=O)NC1=O` (stereo not drawn) [ALLANTOIN] are 67.4% and 86.17%.
For `Oc1ncnc2[nH]ncc12` [ALLOPURINOL] the same measures were 68.8% and 84.36%.
